From ChEMBL document CHEMBL6115030, “Systematic All-Hydrocarbon Stapling Analysis for Cecropin A Generates a Potent and Stable Antimicrobial Peptide” (J Med Chem, 2025)
Calls of active or inactive are those of the source. The rule behind the calls is not given here. Bridge positions count the residues as written; N and C are the ends. Square brackets hold non-standard residues; d marks the D form. Peptide text beside a SMILES is read from it. * marks the point of attachment. X1 = CC[C@H](C)CCCCC(=O)*; Dab = NCC[C@H](N)C(=O)O

Key:
[1] = test system: Escherichia coli; assay: In vivo antibacterial activity against Escherichia coli intraperitoneally injected into C57BL/6 mouse peritonitis model assessed as mouse survival at 2.5 mg/kg, ip measured after 48 hrs relative to control; type: functional
[2] = Toxicity in C57BL/6 mouse assessed as death at 25 mg/kg, ip measured during 14 days of study; type: organism-based; details: in vivo, 336 h, time 14 day
[3] = Stability of the compound in human serum assessed as retention time by RP-HPLC analysis; type: ADME, cell-free
[4] = test system: Escherichia coli; assay: In vivo antibacterial activity against Escherichia coli intraperitoneally injected into C57BL/6 mouse peritonitis model assessed as reduction in bacterial load in kidney at 2.5 mg/kg, ip measured after 48 hrs relative to control; type: functional, organism-based
[5] = Stability of the compound in human serum assessed as remaining peptide by RP-HPLC analysis; type: ADME, cell-free
[6] = Toxicity in C57BL/6 mouse assessed as death at 50 mg/kg, ip measured on day 4; type: organism-based; details: in vivo, 96 h, time 4 day
[7] = test system: Mus musculus; assay: In vivo anti-inflammatory efficacy in Escherichia coli intraperitoneally injected into C57BL/6 mouse peritonitis model assessed as reduction in IL-6 level in blood at 2.5 mg/kg, ip measured after 48 hrs by ELISA; type: functional, organism-based
[8] = Toxicity in C57BL/6 mouse assessed as increase in body weight at 25 mg/kg, ip measured during 14 days of study; type: organism-based; details: in vivo, 336 h, time 14 day
[9] = test system: Klebsiella pneumoniae; assay: Antibacterial activity against Klebsiella pneumoniae ATCC 13883 assessed as inhibition of bacterial growth measured after 24 hrs by broth microdilution method; type: functional
[10] = Toxicity in C57BL/6 female mouse assessed as apparent inflammatory exudates ([…], neutrophiles, macrophages) in lungs at 25 mg/kg, ip measured during 14 days of study by H and E staining based analysis; type: organism-based; details: in vivo, 336 h, time 14 day
[11] = test system: Cell membrane; assay: Induction of Outer membrane damage in Escherichia coli assessed as irregular collapsed and rough surface membrane at 5 uM measured after 24 hrs by SEM imaging analysis
[12] = test system: Mus musculus; assay: In vivo anti-inflammatory efficacy in Escherichia coli intraperitoneally injected into C57BL/6 mouse peritonitis model assessed as reduction in IL-1beta level in blood at 2.5 mg/kg, ip measured after 48 hrs by ELISA; type: functional, organism-based
[13] = Hemolytic activity in human RBC assessed as hemolysis incubated for 1 hr by microplate reader; type: toxicity, cell-based, Erythrocyte; details: red blood cells
[14] = Toxicity in C57BL/6 female mouse assessed as haemorrhagic point and blurred white pulp boundary in liver at 25 mg/kg, ip measured during 14 days of study by H and E staining based analysis; type: organism-based; details: in vivo, 336 h, time 14 day
[15] = Stability of the compound in human serum assessed as peptide degradation by RP-HPLC analysis; type: ADME, cell-free; details: read-out: T50 (converted)
[16] = Toxicity in C57BL/6 female mouse assessed as juxtaglomerular cells and interstitial fibrous tissues in kidney at 25 mg/kg, ip measured during 14 days of study by H and E staining based analysis; type: organism-based; details: in vivo, 336 h, time 14 day
[17] = test system: Pseudomonas aeruginosa; assay: Antibacterial activity against Pseudomonas aeruginosa PAO1 assessed as inhibition of bacterial growth measured after 24 hrs by broth microdilution method; type: functional
[18] = test system: Escherichia coli; assay: In vivo antibacterial activity against Escherichia coli intraperitoneally injected into C57BL/6 mouse peritonitis model assessed as reduction in bacterial load in lung at 2.5 mg/kg, ip measured after 48 hrs relative to control; type: functional, organism-based
[19] = test system: Escherichia coli; assay: In vivo antibacterial activity against Escherichia coli intraperitoneally injected into C57BL/6 mouse peritonitis model assessed as reduction in bacterial load in blood at 2.5 mg/kg, ip measured after 48 hrs relative to control; type: functional, organism-based
[20] = test system: Escherichia coli; assay: In vivo antibacterial activity against Escherichia coli intraperitoneally injected into C57BL/6 mouse peritonitis model assessed as reduction in bacterial load in liver at 2.5 mg/kg, ip measured after 48 hrs relative to control; type: functional, organism-based
[21] = Toxicity in C57BL/6 female mouse assessed as haemorrhagic point and blurred white pulp boundary in spleen at 25 mg/kg, ip measured during 14 days of study by H and E staining based analysis; type: organism-based; details: in vivo, 336 h, time 14 day
[22] = test system: Mus musculus; assay: In vivo anti-inflammatory efficacy in Escherichia coli intraperitoneally injected into C57BL/6 mouse peritonitis model assessed as reduction in TNF-alpha level in blood at 2.5 mg/kg, ip measured after 48 hrs by ELISA; type: functional, organism-based
[23] = test system: Staphylococcus aureus; assay: Antibacterial activity against Staphylococcus aureus ATCC 25923 assessed as inhibition of bacterial growth measured after 24 hrs by broth microdilution method; type: functional
[24] = test system: Escherichia coli; assay: In vivo antibacterial activity against Escherichia coli intraperitoneally injected into C57BL/6 mouse peritonitis model assessed as reduction in bacterial load in spleen at 2.5 mg/kg, ip measured after 48 hrs relative to control; type: functional, organism-based

Work on `CC(C)CCCCC(=O)N[C@@H](CCN)C(=O)N[C@H](C(=O)N[C@@H](CCN)C(=O)N[C@H]1CCNC(=O)[C@H]([C@@H](C)O)NC(=O)[C@H](CCN)NC(=O)[C@H](CCN)NC(=O)[C@H](CC(C)C)NC(=O)[C@@H](Cc2ccccc2)NC(=O)[C@H](CCN)NC1=O)[C@@H](C)O.CC[C@H](C)CCCCC(=O)N[C@@H](CCN)C(=O)N[C@H](C(=O)N[C@@H](CCN)C(=O)N[C@H]1CCNC(=O)[C@H]([C@@H](C)O)NC(=O)[C@H](CCN)NC(=O)[C@H](CCN)NC(=O)[C@H](CC(C)C)NC(=O)[C@@H](Cc2ccccc2)NC(=O)[C@H](CCN)NC1=O)[C@@H](C)O` (X1-[Dab]T[Dab][Dab][Dab][dF]L[Dab][Dab]T; lactam 4-C) yielded an Activity [1] of 100%.
With “Ac-KWKLFKKIEKVGQNIRDGIIKAGPAVAVVGQATQIAK-NH2” the Activity [2] was “Non-toxic”, the Retention_time [3] was 21.69 min and the Activity [4] was “Active”. The Stability [5] was greater than 50%, the Activity [6] was “Toxic” and the Activity [7] was “Active”. The Activity [8] was “Toxic”, the MIC [9] was 12.5 µM and the Activity [10] was “Non-toxic”. For the same molecule, the Activity [11] was “Active”, the Activity [12] was “Active” and the HC50 at 1 h [13] was 174 µM. For the same molecule, the Activity [14] was “Non-toxic”, the half-life [15] was 2.17 h and the Activity [16] was “Non-toxic”. For the same molecule, the Activity [1] was 50%, the MIC [17] was 100 µM and the Activity [18] was “Active”. The Activity [19] was “Active”, the Activity [20] was “Active” and the Activity [21] was “Non-toxic”. For the same molecule, the Activity [22] was “Active”, the MIC [23] was greater than 100 µM and the Activity [24] was “Active”.
